The text below walks through data of ChEMBL document CHEMBL1938362, “Synthesis and properties of molecular probes for the rescue site on mutant cystic fibrosis transmembrane conductance regulator” (J Med Chem, 2011).

In assay [1] the test system is BHK. Put plainly: Modulation of CFTR F508 deletion mutant expressed in BHK cells assessed as increase in forskolin-stimulated iodine influx at 10 uM after 5 mins […] (reference value: 1.4 +/- 0.4 nM/s). Type of assay: cell-based.
The test system of assay [2] is Cystic fibrosis transmembrane conductance regulator (Homo sapiens), P13569 [G551D]. As to the kind of experiment: Modulation of C-terminal His10-tagged CFTR G551D mutant in liposomes of egg phosphatidylcholine assessed as increase in iodine influx at 10 uM after 5 mins […] in presence of protein kinase A and valinomycin relative to control. On the technique in general: The patch-clamp technique gives a direct electrical read-out from membranes.

Molecules are shown by their SMILES.

Sequence of Cystic fibrosis transmembrane conductance regulator (Homo sapiens), P13569 [G551D] (P13569 whole entry G551D): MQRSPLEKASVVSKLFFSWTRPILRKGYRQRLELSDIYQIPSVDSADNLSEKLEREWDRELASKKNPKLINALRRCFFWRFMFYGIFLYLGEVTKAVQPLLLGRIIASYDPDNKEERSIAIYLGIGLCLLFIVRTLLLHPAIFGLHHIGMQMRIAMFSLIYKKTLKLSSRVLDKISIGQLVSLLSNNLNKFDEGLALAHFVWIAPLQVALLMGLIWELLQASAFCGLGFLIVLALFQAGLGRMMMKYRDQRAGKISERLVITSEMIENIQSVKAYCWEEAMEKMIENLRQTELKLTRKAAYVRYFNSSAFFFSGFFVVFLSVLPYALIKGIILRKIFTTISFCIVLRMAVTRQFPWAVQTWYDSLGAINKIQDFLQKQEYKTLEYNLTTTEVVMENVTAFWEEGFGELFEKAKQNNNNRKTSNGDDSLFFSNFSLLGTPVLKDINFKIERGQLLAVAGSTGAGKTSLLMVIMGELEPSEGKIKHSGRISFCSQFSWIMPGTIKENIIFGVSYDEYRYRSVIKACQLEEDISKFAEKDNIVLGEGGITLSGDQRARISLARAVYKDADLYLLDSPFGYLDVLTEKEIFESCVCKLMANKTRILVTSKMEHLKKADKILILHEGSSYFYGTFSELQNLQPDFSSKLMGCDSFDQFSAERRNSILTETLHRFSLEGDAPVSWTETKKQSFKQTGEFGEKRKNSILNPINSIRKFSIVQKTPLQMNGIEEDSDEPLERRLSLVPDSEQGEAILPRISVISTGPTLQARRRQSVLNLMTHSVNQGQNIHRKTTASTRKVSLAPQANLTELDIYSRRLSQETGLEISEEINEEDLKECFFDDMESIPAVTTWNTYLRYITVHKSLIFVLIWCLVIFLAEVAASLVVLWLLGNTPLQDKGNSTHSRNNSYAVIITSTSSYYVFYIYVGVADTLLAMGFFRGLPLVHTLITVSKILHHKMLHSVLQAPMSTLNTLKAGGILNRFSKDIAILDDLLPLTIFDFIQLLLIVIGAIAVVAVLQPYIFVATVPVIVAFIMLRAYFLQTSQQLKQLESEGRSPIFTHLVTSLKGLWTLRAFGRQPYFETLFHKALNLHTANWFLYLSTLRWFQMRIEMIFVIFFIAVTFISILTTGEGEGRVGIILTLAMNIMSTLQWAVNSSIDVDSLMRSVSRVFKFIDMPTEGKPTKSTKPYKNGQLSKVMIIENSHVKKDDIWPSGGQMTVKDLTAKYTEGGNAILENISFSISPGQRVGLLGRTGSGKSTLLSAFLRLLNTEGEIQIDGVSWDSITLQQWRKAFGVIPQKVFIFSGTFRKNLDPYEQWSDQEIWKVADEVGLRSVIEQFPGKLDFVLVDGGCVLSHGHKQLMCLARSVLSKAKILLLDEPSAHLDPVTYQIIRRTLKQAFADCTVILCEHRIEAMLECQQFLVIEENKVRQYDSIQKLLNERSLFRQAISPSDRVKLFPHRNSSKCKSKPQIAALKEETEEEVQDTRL

In the case of `Cc1ccc(O)c(-c2cc(-c3ccc(N)cc3)[nH]n2)c1`, the Activity in assay [1] is 5.1 nM/s.
For `Cc1ccc(O)c(-c2cc(-c3ccc(C#CCNS(=O)(=O)c4cccc5c(N(C)C)cccc45)cc3)[nH]n2)c1`, the values for the Activity in assay [1] and in assay [2] were 1.7 nM/s and 11.2 nM/s, respectively.
Take `Cc1ccc(O)c(-c2cc(-c3ccc(N=[N+]=[N-])cc3)[nH]n2)c1`: the Activity in assay [1] turned out to be 5.1 nM/s.
As to `Cc1ccc(O)c(-c2cc(-c3ccccc3)[nH]n2)c1`, the Activity in assay [1] is 9.9 nM/s; in assay [2], 16.9 nM/s.
Consider `Cc1ccc(O)c(-c2cc(-c3ccc([N+](=O)[O-])cc3)[nH]n2)c1`, for which, in assay [1], the Activity worked out at 5.1 nM/s.
On the same count and under the same terms, next, `Cc1ccc(O)c(-c2cc(-c3ccc(I)cc3)[nH]n2)c1`: 5.1 nM/s.
